Holding throughout (format): functional
The test system of test [1] is Mus musculus. Briefly: In vivo inhibitory activity by mouse air-pouch assay at dose 2 MPK was determined.
Test [2] relates to Mus musculus. Briefly: In vivo inhibitory activity by mouse air-pouch assay at dose 2 mg/Kg was determined.
The species named for test [3] is Mus musculus. Briefly: Effective dose was evaluated by mouse air-pouch assay.
The species entered for test [4] is Rattus norvegicus. Briefly: Effective dose was evaluated by rat adjuvant arthritis model.

Structures are written as SMILES.

As usually defined, the inhibition in vivo is how much of the control response was suppressed. The low end stands for a response near the control, the high end for a response far below the control. In test [1], `CS(=O)(=O)c1ccc(-c2[nH]c(C(F)(F)F)nc2-c2cccc(Cl)c2)cc1` gave an inhibition in vivo at 2 mg/kg of 98%.
The same measure, in the same setting: under `CS(=O)(=O)c1ccc(-c2[nH]c(C(F)(F)F)nc2NS(=O)(=O)c2ccc(F)cc2)cc1` stands 33%; under `CS(=O)(=O)c1ccc(-c2[nH]c(C(F)(F)F)nc2-c2ccsc2)cc1`, 0%.
On the same count and under the same terms, under `CS(=O)(=O)c1ccc(-c2[nH]c(C(F)(F)F)nc2-c2ccc(F)cc2F)cc1` stands 100%.
Same read-out and setting: under `CS(=O)(=O)c1ccc(-c2[nH]c(C(F)(F)F)nc2-c2cccs2)cc1` stands 79%.
In the case of `Cc1cccc(-c2[nH]c(C(F)(F)F)nc2-c2ccc(S(C)(=O)=O)cc2)c1`, the inhibition in vivo at 2 mg/kg in test [1] was determined as 29%.
Same read-out and setting: in the case of `CS(=O)(=O)c1ccc(-c2[nH]c(C(F)(F)F)nc2-c2ccccc2Cl)cc1` it was 86%; in that of `CS(=O)(=O)c1ccc(-c2[nH]c(C(F)(F)F)nc2-c2cccnc2)cc1`, 29%; in that of `CS(=O)(=O)c1ccc(-c2[nH]c(C(F)(F)F)nc2-c2ccc(F)cc2)cc1`, 99%.
By ED50 is commonly meant the dose at which the effect has come halfway, by size or by number of responders. In the case of `CS(=O)(=O)c1ccc(-c2[nH]c(C(F)(F)F)nc2-c2ccccc2)cc1`, the inhibition in vivo at 2 mg/kg in test [2] came to 95%. Besides, the ED50 in test [3] is 0.38 mg/kg; in test [4], 0.16 mg/kg.
Compound `CS(=O)(=O)c1ccc(-c2[nH]c(C(F)(F)F)nc2-c2ccc(Cl)c(Cl)c2)cc1` gave an inhibition in vivo at 2 mg/kg in test [1] of 84%.
Still for that read-out and setting: in the case of `CS(=O)(=O)c1ccc(-c2[nH]c(C(F)(F)F)nc2-c2ccc(F)c(F)c2)cc1` it was 68%.
The same measure, in the same setting: in the case of `Cc1ccc(-c2[nH]c(C(F)(F)F)nc2-c2ccc(S(C)(=O)=O)cc2)cc1Cl` it was 0%; in that of `Cc1c(F)cccc1-c1[nH]c(C(F)(F)F)nc1-c1ccc(S(C)(=O)=O)cc1`, 94%; in that of `CS(=O)(=O)c1ccc(-c2[nH]c(C(F)(F)F)nc2-c2cccc(F)c2)cc1`, 92%.
Same read-out and setting: in the case of `CS(=O)(=O)c1ccc(-c2[nH]c(C(F)(F)F)nc2-c2ccc(Cl)cc2)cc1` it was 86%.
Take `Cc1ccc(-c2cc(C(F)(F)F)nn2-c2ccc(S(N)(=O)=O)cc2)cc1` [CELECOXIB]: the ED50 in test [1] was found to be 0.33 mg/kg; in test [4] it was 0.37 mg/kg.

The values above are taken from ChEMBL document CHEMBL1130700, “Antiinflammatory 4,5-diarylimidazoles as selective cyclooxygenase inhibitors” (1998).
